According to PubChem BioAssay (NCI):
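Briefly, cells in 96-well plates were exposed to five compound concentrations for 48 h, and endpoints were estimated by linear interpolation. GI50 is the concentration that inhibits growth by half. TGI: total growth inhibition.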

Legend:
Test in all cases: growth of human tumour cells (NCI), 48 h; in the data active = GI50 below about 0.43 µM; inactive = the rest
HOP-62 NSCLC = test system: HOP-62 NSCLC
NCI-H460 lung = test system: NCI-H460 lung
TK-10 renal = test system: TK-10 renal
A549 NSCLC = test system: A549 NSCLC
A498 renal = test system: A498 renal
SK-OV-3 ovarian = test system: SK-OV-3 ovarian

C=C(C=O)[C@@H]1CC[C@]2(COC(C)=O)CC[C@]3(C)C(CC[C@@H]4[C@@]5(C)CC[C@H](OC(C)=O)C(C)(C)[C@@H]5CC[C@]43C)[C@@H]12 (some centres not stated)
> 100 µM: TGI (HOP-62 NSCLC) | TGI (NCI-H460 lung) | TGI (TK-10 renal) | TGI (A549 NSCLC) | TGI (A498 renal) | TGI (SK-OV-3 ovarian)
inactive: GI50 (HOP-62 NSCLC) > 100 µM | GI50 (NCI-H460 lung) > 100 µM | GI50 (TK-10 renal) > 100 µM | GI50 (A549 NSCLC) > 100 µM | GI50 (A498 renal) > 100 µM | GI50 (SK-OV-3 ovarian) > 100 µM
